Marks after values point to notes of the source that are not given here.
Legend:
[1] = Partition coefficient (octanol / water); format: physicochemical; details: for logP: ratio of concentrations in nonpolar medium, e.g. octanol, and aqueous medium, e.g. water
Source text: The modes of action reported for each compound are likewise distinct. Azone has been reported as a penetration enhancer, i.e., when it is co-administered with another agent, Azone will facilitate the movement of the agent into the cell by increasing lipid fluidity (Lambert, et al., (1989), Pharm Res., 6(9):798-803). The enhancement effect has been reported to be more pronounced with lipophilic agents and with agents with higher partition coefficients. A partition coefficient is the ratio of the concentrations of a given compound in a nonpolar medium, e.g., octanol and in an aqueous medium, e.g., water (ACV and DHPG have partition coefficients of less than 0.1, whereas Ada-DHPG has a partition coefficient of about 2.8 x10⁵).

HSV-1 (F strain) [2] = assay: Guinea pig model of cutaneous HSV-1 infection, acyclovir creams (Example 9); format: in vivo, female Hartley guinea pigs; details: 5% ACV in 5% Nonoxynol-9 cream; once a day for 3 days starting 24 hours post-infection; Day 4; treated vs nontreated side
Source text: In vivo testing for antiviral activity against cutaneous HSV-1 infections is also done using a guinea pig model, for example, by the procedures described by Hubler, W.R., Jr., Troy, D.F., Troll, D., and Jarratt, M., "Guinea Pig Model For Cutaneous Herpes Simplex Virus Infection", J. Invest. Dermatol., 62:92-95 (1974). This procedure is a modification of a procedure initially described by Hubler, W.R., Jr., et al., "Guinea Pig Model Eor Cutaneous Herpes Simplex Virus Infection", J. Invest. Dermatol., 62:92-95 (1974). The backs of female Hartley guinea pigs were shaved, depilated and inoculated with HSV-1 (F strain) in four different areas by multiple shallow punctures. Two quadrants were on the left side and two on the right side of the dorsum. The animals were divided into 3 treatment groups of 6 animals each. The treatment groups were topically administered a cream on one side of the back once a day for 3 days starting 24 hours post-infection, the other side of back was not treated. The creams contained as an active ingredient either 5% acyclovir in a polyethylene glycol (PEG) based cream (Zovirax ®), 5% acyclovir in a 5% Nonoxynol-9 (N-9) cream or 5% Nonoxynol-9 cream only (placebo control). The numbers of lesions which developed on either the treated or untreated side of the back were counted on Day 4 after infection. […]

HSV-1 (F strain) [3] = assay: Guinea pig model of cutaneous HSV-1 infection, dose response tests in Azone / Nonoxynol-9 creams (Example 8); format: in vivo, female Hartley guinea pigs; details: once a day 3 days from 24 hours post-infection, Day 4
Source text: (§1) In vivo testing for antiviral activity against cutaneous HSV-1 infections is also done using a guinea pig model, for example, by the procedures described by Hubler, W.R., Jr., Troy, D.F., Troll, D., and Jarratt, M., "Guinea Pig Model For Cutaneous Herpes Simplex Virus Infection", J. Invest. Dermatol., 62:92-95 (1974).
(§2) This procedure is a modification of a procedure initially described by Hubler, W.R., Jr., et al., "Guinea Pig Model For Cutaneous Herpes Simplex Virus Infection", J. Invest. Dermatol., 62:92-95 (1974).
The backs of female Hartley guinea pigs were shaved, depilated and inoculated with HSV-1 (F strain) in four different areas by multiple shallow punctures. Two quadrants were on the left side and two on the right side of the dorsum. The guinea pigs were divided into treatment groups of usually 6 each. Treatment was topically administered once a day for 3 days starting 24 hours post-infection on one side of the back. The other side of the back was not treated. Different treatment groups were administered creams which contained 9-[1,3-di(1-adamantyl-carboxy)-2-propoxymethyl]guanine (Ada-DHPG), (10%, 5%, 2.5%, 1% or 0%) with 5% propylene glycol (PG), or 5% propylene glycol (PG); and either Nonoxynol-9 (5% and 2.5%) or Azone (10% and 5%). Additionally, other groups were administered creams containing Ada-DHPG (10%, 5%, 2.5%, 1% or 0%) with no propylene glycol and either 10% Azone or 5% Nonoxynol-9. Seven dose response tests were run in all. In each test the numbers of lesions were counted on Day 4 after infection. The treated side versus the nontreated side for the various groups were compared by a percent reduction in number of lesions which developed.

HSV-1 (F strain) [4] = assay: Guinea pig model of cutaneous HSV-1 infection, DHPG versus Ada-DHPG in PG, Azone or Nonoxynol-9 creams (Example 10); format: in vivo, female Hartley guinea pigs; details: 0.5 ml/animal once a day for 3 days, lesions counted Day 4
Source text: as §1, §2
The backs of female Hartley guinea pigs were shaved, depilated and inoculated with HSV-1 (F strain) in four different areas by multiple shallow punctures. Two quadrants were on the left side and two on the right side of the dorsum. The animals were divided into groups and topically administered a cream on one side of the back (0.5 ml/animal) once a day for 3 days starting […] post infection. The other side of the back was not treated. The cream contained either a formulation of 9-(1,3-dihydroxy-2-propoxymethyl)guanine (DHPG) with Azone, Nonoxynol-9 (N-9), or propylene glycol (PG); or 9-[1,3-di(1-adamantylcarboxy)-2-propoxymethyl]guanine (Ada-DHPG) with Azone, Nonoxynol-9 (N-9), or propylene glycol (PG). Placebo groups were treated with only Azone, Nonoxynol-9 (N-9) or propylene glycol (PG). Both DHPG and Ada-DHPG were run in each test with a single formulation. A total of 4 tests were run. In each study, the number of lesions which developed were counted on Day 4 after infection. The treated side versus nontreated side for the various groups were compared by a percent reduction in the number of lesions which developed.

SMILES: Nc1nc2c(ncn2COCCO)c(=O)[nH]1 [ACV, 9-(2-hydroxyethoxymethyl)guanine]
- partition coefficient ([1]; octanol/water): less than 0.1
- Percent Reduction in numbers of lesions (HSV-1 (F strain) [2]): 69* Percent

SMILES: Nc1nc2c(ncn2COC(COC(=O)C23CC4CC(CC(C4)C2)C3)COC(=O)C23CC4CC(CC(C4)C2)C3)c(=O)[nH]1 (stereo not shown) [Ada-DHPG, 9-[1,3-di(1-adamantylcarboxy)-2-propoxymethyl]guanine]
- logP [1]: ~5.45
- Percent Reduction in number of lesions (HSV-1 (F strain) [3]; Test 1: 1% Ada-DHPG, 5% PG (no surfactant added) cream): 12%
- Percent Reduction in number of lesions (HSV-1 (F strain) [3]; Test 1: 2.5% Ada-DHPG, 5% PG (no surfactant added) cream): 16%
- Percent Reduction in number of lesions (HSV-1 (F strain) [3]; Test 1: 5% Ada-DHPG, 5% PG (no surfactant added) cream): 3%
- Percent Reduction in number of lesions (HSV-1 (F strain) [3]; Test 1: 10% Ada-DHPG, 5% PG (no surfactant added) cream): 37* Percent
- Percent Reduction in number of lesions (HSV-1 (F strain) [3]; Test 2: 1% Ada-DHPG, 5% Azone cream (with 5% PG)): -6%
- Percent Reduction in number of lesions (HSV-1 (F strain) [3]; Test 2: 2.5% Ada-DHPG, 5% Azone cream (with 5% PG)): 14%
- Percent Reduction in number of lesions (HSV-1 (F strain) [3]; Test 2: 5% Ada-DHPG, 5% Azone cream (with 5% PG)): 14%
- Percent Reduction in number of lesions (HSV-1 (F strain) [3]; Test 2: 10% Ada-DHPG, 5% Azone cream (with 5% PG)): 29%
- Percent Reduction in number of lesions (HSV-1 (F strain) [3]; Test 3: 1% Ada-DHPG, 10% Azone cream (with 5% PG)): 43* Percent
- Percent Reduction in number of lesions (HSV-1 (F strain) [3]; Test 3: 2.5% Ada-DHPG, 10% Azone cream (with 5% PG)): 35* Percent
- Percent Reduction in number of lesions (HSV-1 (F strain) [3]; Test 3: 5% Ada-DHPG, 10% Azone cream (with 5% PG)): 73* Percent
- Percent Reduction in number of lesions (HSV-1 (F strain) [3]; Test 3: 10% Ada-DHPG, 10% Azone cream (with 5% PG)): 78* Percent
- Percent Reduction in number of lesions (HSV-1 (F strain) [3]; Test 4: 1% Ada-DHPG, 10% Azone (no PG) cream): 27%
- Percent Reduction in number of lesions (HSV-1 (F strain) [3]; Test 4: 2.5% Ada-DHPG, 10% Azone (no PG) cream): 18%
- Percent Reduction in number of lesions (HSV-1 (F strain) [3]; Test 4: 5% Ada-DHPG, 10% Azone (no PG) cream): 27%
- Percent Reduction in number of lesions (HSV-1 (F strain) [3]; Test 4: 10% Ada-DHPG, 10% Azone (no PG) cream): 47* Percent
- Percent Reduction in number of lesions (HSV-1 (F strain) [3]; Test 5: 1% Ada-DHPG, 2.5% Nonoxynol-9 cream (with 5% PG)): 33%
- Percent Reduction in number of lesions (HSV-1 (F strain) [3]; Test 5: 2.5% Ada-DHPG, 2.5% Nonoxynol-9 cream (with 5% PG)): 52* Percent
- Percent Reduction in number of lesions (HSV-1 (F strain) [3]; Test 5: 5% Ada-DHPG, 2.5% Nonoxynol-9 cream (with 5% PG)): 52* Percent
- Percent Reduction in number of lesions (HSV-1 (F strain) [3]; Test 5: 10% Ada-DHPG, 2.5% Nonoxynol-9 cream (with 5% PG)): 64* Percent
- Percent Reduction in number of lesions (HSV-1 (F strain) [3]; Test 6: 1% Ada-DHPG, 5% Nonoxynol-9 cream (with 5% PG)): 59* Percent
- Percent Reduction in number of lesions (HSV-1 (F strain) [3]; Test 6: 2.5% Ada-DHPG, 5% Nonoxynol-9 cream (with 5% PG)): 65* Percent
- Percent Reduction in number of lesions (HSV-1 (F strain) [3]; Test 6: 5% Ada-DHPG, 5% Nonoxynol-9 cream (with 5% PG)): 92* Percent
- Percent Reduction in number of lesions (HSV-1 (F strain) [3]; Test 6: 10% Ada-DHPG, 5% Nonoxynol-9 cream (with 5% PG)): 88* Percent
- Percent Reduction in number of lesions (HSV-1 (F strain) [3]; Test 7: 1% Ada-DHPG, 5% Nonoxynol-9 (no PG) cream): 57* Percent
- Percent Reduction in number of lesions (HSV-1 (F strain) [3]; Test 7: 2.5% Ada-DHPG, 5% Nonoxynol-9 (no PG) cream): 68* Percent
- Percent Reduction in number of lesions (HSV-1 (F strain) [3]; Test 7: 5% Ada-DHPG, 5% Nonoxynol-9 (no PG) cream): 90* Percent
- Percent Reduction in number of lesions (HSV-1 (F strain) [3]; Test 7: 10% Ada-DHPG, 5% Nonoxynol-9 (no PG) cream): 82* Percent
- Percent Reduction in the number of lesions (HSV-1 (F strain) [4]; Test 1: 10% Ada-DHPG in 25% PG cream): 51* Percent
- Percent Reduction in the number of lesions (HSV-1 (F strain) [4]; Test 2: 10% Ada-DHPG in 5% PG cream): 42* Percent
- Percent Reduction in the number of lesions (HSV-1 (F strain) [4]; Test 3: 10% Ada-DHPG in 10% Azone cream): 76* Percent
- Percent Reduction in the number of lesions (HSV-1 (F strain) [4]; Test 4: 10% Ada-DHPG in 5% Nonoxynol-9 cream): 77* Percent

SMILES: Nc1nc2c(ncn2COC(CO)CO)c(=O)[nH]1 [DHPG, 9-(1,3-dihydroxy-2-propoxymethyl)guanine, reference compound]
- logP [1]: < -1
- Percent Reduction in the number of lesions (HSV-1 (F strain) [4]; Test 1: 4.4% DHPG in 25% PG cream): 75* Percent
- Percent Reduction in the number of lesions (HSV-1 (F strain) [4]; Test 2: 4.4% DHPG in 5% PG cream): 68* Percent
- Percent Reduction in the number of lesions (HSV-1 (F strain) [4]; Test 3: 4.4% DHPG in 10% Azone cream): 100* Percent
- Percent Reduction in the number of lesions (HSV-1 (F strain) [4]; Test 4: 4.4% DHPG in 5% Nonoxynol-9 cream): 94* Percent

Reference: patent publication EP0394928A1, “Topical antiviral pharmaceutical composition containing a nonionic surfactant” (SYNTEX (U.S.A.) INC., priority 1989, dated 1990)
